Patent publication US11213494B2 (priority 2016, dated 2022)

B1: BDNF: exogenous brain-derived neurotrophic factor, secreted protein, ligand of TrkB (protein, UniProt P23560 19-247, looked up)
Neurotrophic factor BDNF …: APMKEANIRGQGGLAYPGVRTHGTLESVNGPKAGSRGLTSLADTFEHVIEELLDEDQKVRPNEENNKDADLYTSRVMLSSQVPLEPPLLFLLEEYKNYLDAANMSMRVRRHSDPARRGELSVCDSISEWVTAADKKTAVDMSGGTVTVLEKVPVSKGQLKQYFYETKCNPMGYTKEGCRGIDKRHWNSQCRTTQSYVRALTMDSKKRIGWRFIRIDTSCVCTLTIKRGR

How the values were obtained:
in vivo = assay: in vivo; parameters: species or system mice; conditions: Mecp2^tm1.1Jae heterozygous (Het), mouse, ip, 50 mg/kg, brain tissue concentration (corrected for blood contamination)
Method: The brain concentration of LM22A-4 (custom synthesized by Ricerca Biosciences, LLC) was evaluated in Het mice 1 h after a 50 mg/kg intraperitoneal dose using reverse-phase liquid chromatography with triple-quadrupole tandem mass spectrometric (LC-MS/MS) detection. […] Brainstem and forebrain samples were homogenized with a Virsonic 100 ultrasonic homogenizer and prepared for analysis using acetonitrile precipitation by combining one volume of sample with three volumes of acetonitrile. Samples were centrifuged and the resulting supernatant was sampled for analysis using a CTC Leap PAL autosampler (Leap Technologies) and two PerkinElmer series 200 micro pumps. Chromatography was performed at ambient temperature using a 50×2.0 mm inner diameter, 4 μm Synergi Polar-RP analytical column (Phenomenex). The aqueous mobile phase (A) was 4 mM ammonium formate, pH 3.5 and the organic mobile phase (B) was 10:90 (v/v) […] ammonium formate, pH 3.5/acetonitrile. The analyte was eluted with a gradient which changed linearly from 0 to 100% B in 3 min at a flow rate of 300 μl/min. The total run time was 4.5 min and the injection volume was 10 μl. The analyte was detected on a Sciex API 3000 triple-quadrupole mass spectrometer equipped with a TurbolonSpray interface in the positive electrospray ionization mode (Applied Biosystems/MDS). […]

Mecp2 Het mice = assay type: in vivo; conditions: 50 mg/kg i.p. twice daily for 4 weeks
Method: (§1) Respiratory patterns were analyzed at 8, 10, and 12 weeks after birth in unrestrained mice using whole-body plethysmography as described previously. Measurements were taken from quiet breathing periods of at least 5 min total duration, and apneas were defined as pauses in breathing greater than two times the average breath duration calculated for each animal. LM22A-4 treatment. Wt and Het littermates were divided into 4 groups: Wt vehicle-treated (100 μl of 0.9% NaCl, i.p., b.i.d.), Wt drug treated (50 mg/kg LM22A-4 in 0.9% NaCl, i.p., b.i.d.), Het vehicle-treated (100 μl of 0.9% NaCl, i.p., b.i.d.), and Het drug-treated (50 mg/kg LM22A-4 in 0.9% NaCl, i.p., b.i.d.). Each mouse was treated from 8 to 13 weeks of age. Whole-body plethysmography was performed during week 12 and animals were subsequently killed and tissues harvested for TrkB Western blots and BDNF ELISA during week 13.
Comparison of respiratory parameters between Wt and Het animals in the initial phenotyping experiments were performed using unpaired Student's t test. Comparisons among Wt vehicle-treated, Wt drug-treated, Het vehicle-treated, and Het drug-treated groups in the LM22A-4 trials, including plethysmography and Western blots were performed using one-way ANOVA with post hoc Least Significant Difference test (LSD) for intergroup comparisons. Results were considered significant if the p-value was <0.05. Data are presented as the mean±SEM.

TrkB [1] = assay: TrkB, AKT and ERK phosphorylation assays (Western blot) in pons and medulla; assay type: in vivo, mice; conditions: 50 mg/kg i.p. b.i.d. for 5 weeks
Method: The ratios of (1) phospho-TrkB^Y817/TrkB (full-length), phospho-ERK/ERK and phospho-AKT/AKT, (2) phospho-TrkB^Y817/actin, phospho-ERK/actin and phospho-AKT/actin, (3) TrkB (full-length)/actin, ERK/actin and AKT/actin and (4) TrkB (truncated)/actin were measured by Western blot using the ECL Chemiluminescence System (GE Healthcare). Site-specific rabbit monoclonal antiphospho-TrkB^Y817 antibody was obtained from Epitomics and rabbit polyclonal TrkB antibody was obtained from Millipore. Rabbit polyclonal ERK and AKT, mouse monoclonal phospho-ERK and phospho-AKT antibodies were obtained from Cell Signaling Technology. Tissues were homogenized in a lysis buffer (containing, in mM: 20 Tris, pH 8.0, 137 NaCl, 1% Igepal CA-630, 10% glycerol, 1 PMSF, 10 μg/ml aprotinin, 1 μg/ml leupeptin, 500 μM orthovanadate). Lysates were centrifuged at 14,000×g for 10 min, then the supernatant was collected and protein concentration was determined using the BCA Protein Assay Reagent (Pierce).
as §1

[2] = Body weight and tolerability during LM22A-4 treatment; assay type: in vivo, mice
Method: as §1

TrkB [3] = assay: Synaptic hyperexcitability in brainstem respiratory and autonomic circuits and apneic breathing in RTT mice; assay type: in vivo; conditions: for synaptic hyperexcitability in brainstem respiratory and autonomic circuits: acute
AMPA-receptors = assay: Whole-cell patch-clamp recordings of nTS second-order neurons in brainstem slices; assay type: cell-based, mice; conditions: 10 μM in the superfusate
Method: Horizontal brainstem slices were prepared from 3- and 5- to 7-week-old Mecp2 Null and Wt male mice. Animals were deeply anesthetized by inhalation of isoflurane and then decapitated. Brains were removed from the skull and placed in low Ca2+, ice-cold artificial CSF (ACSF) containing the following (in mM): 125 NaCl, 3 KCl, 1.2 NaH2PO4, 1 CaCl2, 1.2 MgSO4, 2 MgCl2, 25 NaHCO3, 10 D-glucose, and 0.4 L-ascorbic acid, equilibrated to pH 7.4 with 95% O2/5% CO2, for 2-5 min. […]
Slices were placed into the recording chamber, held in place with nylon-wired grid and superfused with recording ACSF at 30-32° C. at a flow rate of 4-5 ml/min. […] Evoked, spontaneous and miniature EPSCs (eEPSCs, sPSCs, mEPSCs) were recorded from cells meeting this criterion in the whole-cell voltage-clamp configuration at a holding potential of −60 mV. […] To compare intrinsic neuronal excitability between genotypes, action-potential properties and firing frequency in response to current injection (50 pA increments) were recorded in nComm neurons as well. […]
Spontaneous and evoked postsynaptic currents were analyzed with Clampfit and Microsoft Excel. In the analysis of eEPSCs, 20 sweeps were averaged with Clampfit and the resulting eEPSC amplitudes were measured and compared between genotypes at different stimulation intensities. […]

Molecule | concentration at 1 h (in vivo; brainstem) [nM] | concentration at 1 h (in vivo; forebrain) [nM] | percentage of apneic animals (Mecp2 Het mice) | Te (expiratory time) compared with Wt (Mecp2 Het mice; 12-week-old Het mice) | Ttot (total breath duration) compared with Wt (Mecp2 Het mice; 12-week-old Het mice) | breathing frequency compared with Wt (Mecp2 Het mice; 12-week-old Het mice) | respiratory function, drug- vs vehicle-treated Wt mice (Mecp2 Het mice; Wt mice) | deficits in TrkB phosphorylation (p-TrkBY817/TrkB, p-TrkBY817/actin) (TrkB [1]; pons and medulla, 13-week-old Het mice) | decreases in p-AKT/AKT and p-AKT/actin (TrkB [1]; pons, Het mice) | effect of drug treatment on level of p-ERK/ERK (TrkB [1]; pons, Wt and Het mice) | levels of p-TrkB/TrkB and p-TrkB/actin vs wild-type controls (TrkB [1]; pons, drug-treated Het mice) | effect on body weight ([2]; Wt or Het mice, 50 mg/kg i.p. b.i.d. throughout the treatment period) | tolerability of daily treatment ([2]; heterozygous female Mecp2 mutant mice) | apneic breathing in vivo (TrkB [3]) | synaptic hyperexcitability in brainstem respiratory and autonomic circuits (TrkB [3]) | effect on sPSCs (AMPA-receptors) | reduction of eEPSC amplitudes (AMPA-receptors; n=10) [%]
O=C(NCCO)c1cc(C(=O)NCCO)cc(C(=O)NCCO)c1 [LM22A-4, N,N′,N″Tris(2-hydroxyethyl)-1,3,5-benzenetricarboxamide] | 2.9 | 4.1 | unaffected | not significantly different | not significantly different | not significantly different | no significant differences | completely reversed | reversed | no significant effect | significantly higher | no effect | well tolerated | eliminate | acutely reverse |  | 
N#Cc1cc2c(cc1[N+](=O)[O-])=NC(=O)C(=O)N=2 [6-cyano-7-nitroquinoxaline-2,3-dione] |  |  |  |  |  |  |  |  |  |  |  |  |  |  |  | completely abolished | 92.2±1.4
B1 |  |  |  |  |  |  |  |  |  |  |  |  |  | eliminate | acutely reverse |  | 
